Three compounds from patent publication US12723063B2, “GIPR-agonist compounds” (Eli Lilly and Company, priority 2019, dated 2026) can be followed below.

*1 amine or outer side, *2 acyl side, *3 side chain or, on linkers, in order; H or OH if unused. Where a SMILES comes first, the peptide text is derived from it. Side-chain parts run from the residue outwards. [ ]: non-standard residue; d: D form. The star is where a group is joined. C20 diacid = O=C(O)CCCCCCCCCCCCCCCCCCC(=O)*; γGlu = O=C(O)[C@H](CCC(=O)[*:2])N[*:1]; αMeL = CC(C)C[C@](C)(N)C(=O)O; AEEA = NCCOCCOCC(=O)O; Aib = CC(C)(N)C(=O)O Some results are limits rather than exact numbers.

The target in data set [1] is T1, human GLP-1 receptor (GLP-1R) (Homo sapiens, UniProt P43220).
T1 construct: expressed in transfected cells; host or cells: HEK293
T1 sequence (P43220 24-463): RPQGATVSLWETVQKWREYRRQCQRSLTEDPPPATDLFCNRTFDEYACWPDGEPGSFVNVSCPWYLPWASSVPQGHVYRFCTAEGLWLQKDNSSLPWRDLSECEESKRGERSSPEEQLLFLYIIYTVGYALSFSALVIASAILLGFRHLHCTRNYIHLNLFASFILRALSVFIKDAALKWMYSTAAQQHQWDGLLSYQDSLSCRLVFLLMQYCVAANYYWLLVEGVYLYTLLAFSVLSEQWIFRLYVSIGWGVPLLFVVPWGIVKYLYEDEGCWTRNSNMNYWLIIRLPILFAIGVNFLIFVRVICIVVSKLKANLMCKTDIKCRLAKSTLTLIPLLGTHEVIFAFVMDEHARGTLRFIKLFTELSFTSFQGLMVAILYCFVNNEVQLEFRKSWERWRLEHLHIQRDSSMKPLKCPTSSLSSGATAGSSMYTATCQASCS
The experiment in a line: cAMP functional assay (HTRF) in HEK293 cells in presence of 0.1% casein. Conditions: HEK293 cells expressing human GLP-1R, geometric mean, read-out: hGLP1R cAMP Rel EC50 nM (SEM, n). It is filed as cell-based. The protocol:
(§1) Each receptor over-expressing cell line (20 μl) is treated with the test peptide in DMEM (Gibco Cat #31053) supplemented with 0.1% Casein (Sigma Cat #C4765), 250 μM IBMX, 1× GlutaMAX™ (Gibco Cat #35050), and 20 mM HEPES (HyClone Cat #SH30237.01) in a 20 μl assay volume. After incubating for 60 minutes at room temperature, the resulting increase in intracellular CAMP is quantitatively determined using the CisBio CAMP Dynamic 2 HTRF Assay Kit (62AM4PEJ). The Lysis buffer containing cAMP-d2 conjugate (20 μl) and the antibody anti-cAMP-Eu3+-Cryptate (20 μl) are then added to determine the cAMP level. After incubating 60 minutes at room temperature, HTRF signal is detected with an Envision 2104 plate reader (PerkinElmer). Fluorescent emission at 620 nm and at 665 nm is measured and the ratio between 620 nm and at 665 nm is calculated and then are converted to nM cAMP per well using a cAMP standard curve. Dose response curves of compounds are plotted as the percentage of stimulation normalized to minimum (buffer only) and maximum (maximum concentration of each control ligand) values and analyzed using a four parameter non-linear regression fit with a variable slope (Genedata Screener 13). EC50 is the concentration of compound causing half-maximal simulation in a dose response curve. A relative EC50 value is derived by non-linear regression analysis using the percent maximal response vs, the concentration of peptide added, fitted to a four-parameter logistic equation.
(§2) Intracellular cAMP levels are determined by extrapolation using a standard curve. Dose response curves of compounds are plotted as the percentage of stimulation normalized to minimum (buffer only) and maximum (maximum concentration of each control ligand) values and analyzed using a four-parameter non-linear regression fit with a variable slope (Genedata Screener 13). EC50 is the concentration of compound causing half-maximal simulation in a dose response curve. Each relative EC50 value for the geometric mean calculation is determined from a curve fitting.
(§3) Concentration response curves of compounds are plotted as the percentage of stimulation normalized to minimum (buffer only) and maximum (maximum concentration of each control ligand) values and analyzed using a four-parameter non-linear regression fit with a variable slope (Genedata Screener 13). EC50 is the concentration of compound causing half-maximal simulation in a dose response curve. […] The standard error of the mean is reported:
(§4) [formula] • The log transform accounts for the EC50 values falling on a multiplicative, rather than an arithmetic scale.
(§5) For illustration, as shown by Example 1, the peptide is tested in 8 runs of the hGIPR CAMP assay. […] Accordingly, each Example will use the geometric mean of those values to normalize the Example assay runs.
In general terms: Time-resolved FRET reads energy transfer from a long-lived donor to a nearby acceptor.

Data set [2] deals with T2, human glucagon receptor (GcgR) (Homo sapiens, UniProt P47871).
T2 construct: expressed in transfected cells; host or cells: HEK293
T2 sequence (P47871 26-477): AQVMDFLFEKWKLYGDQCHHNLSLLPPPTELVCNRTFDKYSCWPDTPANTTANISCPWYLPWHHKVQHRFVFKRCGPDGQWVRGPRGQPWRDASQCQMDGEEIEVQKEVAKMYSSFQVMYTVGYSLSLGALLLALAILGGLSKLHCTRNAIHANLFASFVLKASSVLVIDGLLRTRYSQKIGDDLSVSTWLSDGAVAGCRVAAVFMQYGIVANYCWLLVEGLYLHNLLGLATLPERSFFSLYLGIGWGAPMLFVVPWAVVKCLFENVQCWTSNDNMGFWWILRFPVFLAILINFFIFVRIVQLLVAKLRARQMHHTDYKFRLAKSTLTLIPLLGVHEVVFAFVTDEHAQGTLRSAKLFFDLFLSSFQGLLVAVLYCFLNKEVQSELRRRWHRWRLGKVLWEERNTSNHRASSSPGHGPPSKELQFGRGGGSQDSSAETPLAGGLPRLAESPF
Described as above. Conditions: HEK293 cells expressing human GcgR, geometric mean, read-out: hGcgR cAMP Rel EC50 nM (SEM, n). It is filed as cell-based. As to the method: as §1, §2, §3, §4, §5

The target of data set [3] is T3, human glucose-dependent insulinotropic peptide receptor (GIPR) (Homo sapiens, UniProt P48546).
T3 construct: expressed in transfected cells; host or cells: HEK293
T3 sequence (P48546 22-466): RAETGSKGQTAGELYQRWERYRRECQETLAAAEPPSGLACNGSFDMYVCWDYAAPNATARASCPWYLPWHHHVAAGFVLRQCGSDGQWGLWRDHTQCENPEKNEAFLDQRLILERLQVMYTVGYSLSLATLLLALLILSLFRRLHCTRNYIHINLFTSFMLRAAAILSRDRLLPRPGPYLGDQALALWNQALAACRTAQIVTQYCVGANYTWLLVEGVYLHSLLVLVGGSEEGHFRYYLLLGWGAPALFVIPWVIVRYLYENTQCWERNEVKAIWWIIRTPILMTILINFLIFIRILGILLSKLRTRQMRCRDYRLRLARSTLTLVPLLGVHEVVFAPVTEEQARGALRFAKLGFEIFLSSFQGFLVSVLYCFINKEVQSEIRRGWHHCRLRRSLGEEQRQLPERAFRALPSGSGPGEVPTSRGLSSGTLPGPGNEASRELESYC
The data set is described as above. Conditions: HEK293 cells expressing human GIPR, geometric mean, read-out: hGIPR cAMP Rel EC50 nM (SEM, n). It is filed as cell-based. The protocol: as §1, §2, §3, §4, §5

A further data set addresses T4, human GIPR (Homo sapiens, UniProt P48546).
T4 construct: expressed in transfected cells; crude membranes
T4 sequence (P48546 22-466): T3 sequence (P48546 22-466)
The experiment in a line: [125I]-GIP binding, SPA with WGA beads, 0.1% bacitracin. Conditions: geometric mean, read-out: hGIPR Ki. As to the method:
(§6) Stably transfected cell lines are prepared by subcloning receptor cDNA into a pcDNA3 expression plasmid and transfected into human embryonic kidney (HEK) 293 (hGcgR and hGLP-1R) or Chinese Hamster Ovary (CHO) (hGIPR) cells followed by selection with Geneticin (hGLP-1R and hGIPR) or hygromycin B (hGcgR).
(§7) Two methods are used for the preparation of crude cell membranes.
(§8) Method 1: Frozen cell pellets are lysed on ice in hypotonic buffer containing 50 mM Tris HCl, pH 7.5, and Roche Complete™ Protease Inhibitors with EDTA. The cell suspension is disrupted using a glass Potter-Elvehjem homogenizer fitted with a Teflon® pestle for 25 strokes. The homogenate is centrifuged at 4° C. at 1100× g for 10 minutes. The supernatant is collected and stored on ice while the pellets are resuspended in homogenization buffer and rehomogenized as described above. The homogenate is centrifuged at 1100× g for 10 minutes. The second supernatant is combined with the first supernatant and centrifuged at 35000× g for 1 hour at 4° C. The resulting membrane pellet is resuspended in homogenization buffer containing protease inhibitors at approximately 1 to 3 mg/mL, quick frozen in liquid nitrogen and stored as aliquots in a −80° C. freezer until use.
(§9) Method 2: Frozen cell pellets are lysed on ice in hypotonic buffer containing 50 mM Tris HCl, pH 7.5, 1 mM MgCl2, Roche Complete™ EDTA-free Protease Inhibitors and 25 units/mL DNAse I (Invitrogen). The cell suspension is disrupted using a glass Potter-Elvehjem homogenizer fitted with a Teflon® pestle for 20 to 25 strokes. The homogenate is centrifuged at 4° C. at 1800× g for 15 minutes. The supernatant is collected and stored on ice while the pellets are resuspended in homogenization buffer (without DNAse I) and rehomogenized as described above. The homogenate is centrifuged at 1800× g for 15 minutes. The second supernatant is combined with the first supernatant and centrifuged an additional time at 1800× g for 15 minutes. The overall supernatant is then centrifuged at 25000× g for 30 minutes at 4° C. The resulting membrane pellet is resuspended in homogenization buffer (without DNAse I) containing protease inhibitors at approximately 1 to 3 mg/mL and stored as aliquots in a −80° C. freezer until use.
The binding buffer contains 25 mM HEPES, pH 7.4, 2.5 mM CaCl2), 1 mM MgCl2, 0.1% (w/v) bacitracin, 0.003% (w/v) TWEEN®-20, and Roche Complete™ Protease Inhibitors without EDTA. […] Plates are sealed and mixed on a plate shaker (setting 6) for 1 minute and read with a PerkinElmer Trilux MicroBeta® scintillation counter after 2.5 to 12 hours of incubation/settling time at room temperature.
(§10) Data are analyzed using four-parameter (curve maximum, curve minimum, IC50, Hill slope) nonlinear regression routines (Genedata Screener, version 12.0.4, Genedata AG, Basal, Switzerland). […] Values for Ki are reported as the geometric mean, with error expressed as the standard error of the mean (SEM) and n is equal to the number of independent replicates (determined in assays performed on different days). […] SEM is only calculated when […] or greater. Means are expressed as geometric means with the standard error of the mean (SEM) and the number of replicates (n) indicated in parentheses.

For another data set, the target named is T5, human GLP-1R (Homo sapiens, UniProt P43220).
T5 construct: expressed in transfected cells; crude membranes
T5 sequence (P43220 24-463): as the sequence (P43220 24-463) above
Nature of the data set: [125I]-GLP-1 binding, SPA with WGA beads, 0.1% bacitracin. Conditions: geometric mean, read-out: hGLP1R Ki. The protocol: as §6, §7, §8, §9
The binding buffer contains 25 mM HEPES, pH 7.4, 2.5 mM CaCl2), 1 mM MgCl2, 0.1% (w/v) bacitracin, 0.003% (w/v) TWEEN®-20, and Roche Complete™ Protease Inhibitors without EDTA.
as §10

Data set [4] deals with CD4+ T cells (CD8+ T cell-depleted PBMCs). The experiment in a line: CD4+ T cell proliferation assay (immunogenicity assessment). The format is cell-based, human. Conditions: 0.33 μM, 7 days. The protocol:
Protein therapeutics that induce less than 30% positive response in the CD4+ T cell proliferation assay are associated with a low risk of immunogenicity. Briefly, to assess the propensity for a clinical immunogenic response to the compounds of Examples 1, 2, 3, 5, and 6, CD8+ T cell-depleted peripheral blood mononuclear cells (PBMCs) are prepared and labeled with carboxyfluorescein diacetate succinimidyl ester (CFSE; Invitrogen) from a cohort of 10 healthy donors with diverse human leukocyte antigen (HLA) class II haplotypes. Each donor is tested in triplicate with 2.0 mL media control, keyhole limpet hemocyanin (KLH: 0.33 μM), and the compounds of Examples 1, 2, 3, 5, and 6 (0.33 μM). Cultures are incubated for 7 days at 37° C. with 5% CO2. On day 7, samples are analyzed by flow cytometry using a BD LSR II Fortessa (Becton Dickinson; Franklin Lakes, NJ), equipped with a high throughput sampler (HTS). Data is analyzed using FlowJo® Software (FlowJo, LLC/TreeStar; Ashland, OR).
• Cell Division Index (“CDI”): proportion of divided CD4+ T cells to the total number of CD4+ T cells in stimulated versus unstimulated samples.

In general, EC50 refers to the concentration at which the effect is half-maximal. Regarding `CC[C@H](C)[C@H](NC(=O)[C@H](Cc1ccccc1)NC(=O)[C@@H](NC(=O)CNC(=O)[C@H](CCC(=O)O)NC(=O)C(C)(C)NC(=O)[C@@H](N)Cc1ccc(O)cc1)[C@@H](C)O)C(=O)N[C@@H](CO)C(=O)N[C@@H](CC(=O)O)C(=O)N[C@@H](Cc1ccc(O)cc1)C(=O)N[C@@H](CO)C(=O)N[C@H](C(=O)N[C@@](C)(CC(C)C)C(=O)N[C@@H](CC(C)C)C(=O)N[C@@H](CC(=O)O)C(=O)N[C@@H](CCCCN)C(=O)N[C@@H](CCCCNC(=O)COCCOCCNC(=O)COCCOCCNC(=O)CC[C@H](NC(=O)CCCCCCCCCCCCCCCCCCC(=O)O)C(=O)O)C(=O)N[C@@H](Cc1c[nH]cn1)C(=O)N[C@@H](CCC(N)=O)C(=O)NC(C)(C)C(=O)N[C@@H](CC(=O)O)C(=O)N[C@@H](Cc1ccccc1)C(=O)N[C@H](C(=O)N[C@@H](CCC(=O)O)C(=O)N[C@@H](Cc1ccc(O)cc1)C(=O)N[C@@H](CC(C)C)C(=O)N[C@@H](CC(C)C)C(=O)N[C@@H](CCC(=O)O)C(=O)N[C@@H](CCC(N)=O)C(=O)NCC(=O)N1CCC[C@H]1C(=O)N[C@@H](CO)C(=O)N[C@@H](CO)C(=O)NCC(=O)N[C@@H](C)C(=O)N1CCC[C@H]1C(=O)N1CCC[C@H]1C(=O)N1CCC[C@H]1C(=O)N[C@@H](CO)C(N)=O)C(C)C)[C@@H](C)CC` [Example 67] (H-Y[Aib]EGTFISDYSI[αMeL]LDKK([AEEA-AEEA-γGlu-C20 diacid])HQ[Aib]DFVEYLLEQGPSSGAPPPS-NH2), the results for the EC50 in data set [1], in data set [2] and in data set [3] were over 5000 nM, over 5000 nM and 0.0627 nM, respectively.
In general, Ki refers to the equilibrium dissociation constant of an inhibitor or competing ligand from its target. On to `CC[C@H](C)[C@H](NC(=O)[C@H](CCCCN)NC(=O)[C@H](CC(=O)O)NC(=O)[C@H](CC(C)C)NC(=O)[C@](C)(CC(C)C)NC(=O)[C@@H](NC(=O)[C@H](CO)NC(=O)[C@H](Cc1ccc(O)cc1)NC(=O)[C@H](CC(=O)O)NC(=O)[C@H](CO)NC(=O)[C@@H](NC(=O)[C@H](Cc1ccccc1)NC(=O)[C@@H](NC(=O)CNC(=O)[C@H](CCC(=O)O)NC(=O)C(C)(C)NC(=O)[C@@H](N)Cc1ccc(O)cc1)[C@@H](C)O)[C@@H](C)CC)[C@@H](C)CC)C(=O)N[C@@H](CCCNC(=N)N)C(=O)N[C@@H](CCC(N)=O)C(=O)NC(C)(C)C(=O)N[C@@H](CC(=O)O)C(=O)N[C@@H](Cc1ccccc1)C(=O)N[C@H](C(=O)N[C@@H](CCC(=O)O)C(=O)N[C@@H](Cc1ccc(O)cc1)C(=O)N[C@@H](CCCCNC(=O)COCCOCCNC(=O)COCCOCCNC(=O)CC[C@H](NC(=O)CCCCCCCCCCCCCCCCCCC(=O)O)C(=O)O)C(=O)N[C@@H](CC(C)C)C(=O)N[C@@H](CCC(=O)O)C(=O)N[C@@H](C)C(=O)NCC(=O)N1CCC[C@H]1C(=O)N[C@@H](CO)C(=O)N[C@@H](CO)C(=O)NCC(=O)N[C@@H](C)C(=O)N1CCC[C@H]1C(=O)N1CCC[C@H]1C(=O)N1CCC[C@H]1C(=O)N[C@@H](CO)C(N)=O)C(C)C` [Example 118] (H-Y[Aib]EGTFISDYSI[αMeL]LDKIRQ[Aib]DFVEYK([AEEA-AEEA-γGlu-C20 diacid])LEAGPSSGAPPPS-NH2), for which the EC50 in data set [1] is over 5000 nM; in data set [2], over 5000 nM; in data set [3] it was 0.0611 nM. For the same compound, the Ki on human GIPR is 0.0696 nM; at human GLP-1R, over 920 nM.
Turning to “keyhole limpet hemocyanin [KLH, reference compound]”, in data set [4] (10 healthy donors, positive response CDI>2.5), the “% Donor Response (n = 10)” value was determined as 100%. Besides, in data set [4] (Cell Division Index), the “Median Response Strength in positive donors (CDI)” value is 164.285 (n = 10).
